Results as given in patent US8188312B2, “Acyclic sulfamide derivatives” (Fundacion Imabis. Instituto Mediterraneo para el Avance de …, priority 2006, dated 2012).
“Also recorded” adds a separate entry of the source. Values belong to the compound of their own block, whether it stands above or below them.

How the values were obtained:
human PPARα = target: T1, human PPARα (Homo sapiens, UniProt Q07869); assay: Luciferase reporter gene assay (RGA) in transfected MCF-7 cells; assay type: cell-based; details: for induction of the basal level of PPARα on the PPRE (relative luciferase activity): endogenous coregulator levels, 10 μM WY14643, 1 μM OEA and analogs; for induction of the basal level of PPARα on the PPRE (relative luciferase activity) / induction of luciferase activity with overexpression of TIF2: MCF-7 cells, 16 h; for activation of PPARα (receptor-mediated transcription): summary statement; for induction of luciferase activity with overexpression of TIF2: TIF2 cotransfected, 1 μM
T1 construct: expressed in transfected cells; host or cells: MCF-7 human breast cancer cells, transiently transfected (DOTAP)
T1 sequence (Q07869 1-468): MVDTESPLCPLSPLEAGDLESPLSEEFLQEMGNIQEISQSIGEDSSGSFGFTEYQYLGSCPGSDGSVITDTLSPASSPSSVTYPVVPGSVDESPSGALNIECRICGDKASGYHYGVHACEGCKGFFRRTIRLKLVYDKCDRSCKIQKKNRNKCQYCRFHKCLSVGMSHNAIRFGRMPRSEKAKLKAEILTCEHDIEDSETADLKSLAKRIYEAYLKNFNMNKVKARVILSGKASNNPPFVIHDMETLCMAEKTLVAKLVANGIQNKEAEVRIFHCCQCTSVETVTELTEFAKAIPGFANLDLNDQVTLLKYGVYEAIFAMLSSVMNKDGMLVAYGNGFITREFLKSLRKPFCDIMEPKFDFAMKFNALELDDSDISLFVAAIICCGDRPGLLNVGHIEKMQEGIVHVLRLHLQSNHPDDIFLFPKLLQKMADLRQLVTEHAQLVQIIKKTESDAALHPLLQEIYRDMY
Procedure: FIG. 2: Agonistic action of OEA and analogs. Luciferase reporter gene assays were performed with extracts from MCF-7 cells that were transiently transfected with a luciferase reporter construct containing three copies of the human ACO of PPRE. (A) Wild type human PPARα expression vector was also cotransfected as indicated. Cells were treated for 16 h with solvent (DMSO), and different concentrations (*10^−8, *10^−7, **10^−6 and **10^−5 M) of OEA, compound 2, or *10^−7, **10^−6 and **10^−5 M of anandamide (AEA, used as a negative control), 7 (*10^−8, *10^−7, **10^−6 and **10^−5 M) and 12 (*10^−7, **10^−6 and **10^−5 M). (*p<0.05, (**) p<0.01 vs vehicle, #p<0.01 vs vehicle and without ACO) (B) Wild type human PPARα expression as well as plasmids coding full length TIF2 were also cotransfected as indicated. Cells were treated for 16 h with solvent (DMSO), 10 μM WY14643, 1 μM OEA and its analogs 2, 7 and 12. Relative luciferase activities were measured in reference to solvent-induced cells not overexpressing any protein. Columns represent the mean of at least three experiments and bars indicate SD. (*p<0.01 vs vehicle, #p<0.01 vs vehicle and without TIF2).
Breast cancer human cells MCF-7 were seeded in a 6-well culture plate (10^5 cells/mL) and cultured in a Dulbecco modified Eagle medium (DMEM) free from phenol red, supplied with 5% of fetal bovine serum (FBS) treated with carbon (Macias-Gonzalez, M et al. Mol. End. 17 (2003): 2028).
The liposomes with DNA plasmids were obtained by incubation of 1 μg of the reporter plasmid with luciferase and the wild type human PPAR-α expression vector with 10 μg of N-1-(2,3-dioleyloxi)-propyl-N,N,N-trimethylammonium (DOTAP from Roche Diagnostics) for 15 minutes at room temperature in a total volume of 100 μL. After the dilution with 900 μL of DMEM free from phenol red, the liposomes were added to the cells. 4-5 h after the transfection of the cells, the DMEM free from phenol red supplemented with 500 μL of FBS treated with carbon at 15% was added, in this case with the PPAR-α ligands (OEA, AEA and sulfamides derivatives) or control solvents (DMSO) at different concentrations of 10^−8, 10^−7, 10^−6 and 10^−5 M.
The cells were lysed 16 hours after the beginning of the stimulation with the reporter gene lysis buffer (Roche Diagnostics) and the reporter gene assay or RGA luciferase of constant luminous signal was carried out following the manufactures recommendations (Roche Diagnostics). The luciferase activities were standardized with regard to the protein concentration and the induction factors were calculated as the ratio of luciferase activity of ligand stimulated cells in relation to the solvent controls (Vaisanen, S. et al. Mol. Pharmacol. 62 (2002):788).

[1] = Food intake study: acute treatment in food-deprived rats; assay type: in vivo, male Wistar rats; details: i.p., rats food-deprived 24 h; 30, 60, 120 and 240 min
Procedure: FIG. 3: Activity of OEA analogs as feeding suppressants. Food intake in food-deprived animals was tested 30, 60, 120 and 240 min after the i.p injection of the different compounds synthesized at different doses. Here we show results for compounds 2 (A), 7 (B), 12 (C), 19 (D) and 20 (E). […] Results are means±SEM of at least three determinations per group. (*) p<0.05, (**) p<0.01, (***) p<0.001, versus vehicle, ANOVA.
The effects of the different compounds on feeding behaviour were analyzed in male Wistar rats deprived of food for 24 hours, which were accustomed to its manipulation (Navarro, M et al. 1996 J. Neurochem. 67 (1996):1982. Rodriguez de Fonseca, F. et al. Nature 414 (2001):209. Fu, J et al. Nature, 425 (2003):90). For this aim, 48 hours before every assay rats were set out in single cages, the base material (sand or sawdust) was removed and little food containers were set out into the cage for 4 hours. After this initial phase, animals were deprived of food for 24 hours, always with free access to water. After 24 hours of fast, different treatment groups were established (N=8-10 every group) and different doses of the sulfamide corresponding to each experimental session were administrated i.p. in their vehicle solution in a volume of 1 mL/kg, as well as a control group only treated with the vehicle: • 1) Group treated with a 0.03 mg/kg dose of the sulfamide in vehicle solution. • 2) Group treated with a […] dose of the sulfamide in vehicle. • 3) Group with a 3 mg/kg dose of the corresponding sulfamide in vehicle. • 4) Control group treated with the vehicle tween-80 at 5% in physiological serum.
15 minutes after the administration, the containers with a known food amount (normally 30-40 g) and a bottle of fresh water were placed. These containers were weighted 30, 60, 120 and 240 minutes after their presentation, so that the food ingested by each animal was controlled.

[2] = Food intake studies: chronic treatment, body weight and plasma triglycerides; assay type: in vivo, male Wistar rats
Procedure: (§1) FIG. 4: Effects of chronic treatment with 7 (N-octadecyl-N′-propylsulfamide) on body weight gain and plasma triglycerides. […] Results are means±SEM of at least three determinations per group. (*) p<0.05, versus vehicle, ANOVA.
A chronic treatment with the compounds was carried out using male Wistar rats which were accustomed to its manipulation.
For this aim, rats were set out in single cages keeping the base material (sand or sawdust). After an adaptation phase to the conditions of the husbandry where the assay was carried out, three different groups (N=8 every group) were established according to the received treatment: • 1) Group treated with example 6 in its vehicle solution with a 1 mg/kg dose. • 2) Group treated with tween-80 vehicle at 5% in physiological serum. • 3) Control group treated with physiological serum.
The total duration of the experiment was eight days, with two i.p. daily administrations (injected volume of 1 mL/kg) of the different solutions with an interval of 12 hours between both injections. Everyday and previously to the administration at 8:00, each animal was weighted. During the total time of the assay, the single weight of each animal and the biochemical parameters in serum were daily controlled.

[3] = Subchronic treatment in genetically obese Zucker rats; assay type: in vivo; details: 11 days, 1 mg/kg i.p. daily
Description: as §1
To further explore the anti-obesity properties of this compound, we used an additional animal model of obesity.

[4] = cited from earlier work
[5] = 8 days, 1 mg/kg i.p., normal rats, vs vehicle, 1 mg/kg

SMILES: CCCCCCCC/C=C\CCCCCCCCNS(=O)(=O)NCCC
melting point: 82 to 83 °C

SMILES: CCCCCCCCCCCCCCCCNS(N)(=O)=O [Compound 3, N-hexadecylsulfamide]
melting point: 102 to 104 °C

SMILES: CCCCCCCCCCCCCCCCCCNS(N)(=O)=O [Compound 2, N-octadecylsulfamide]
induction of luciferase activity with overexpression of TIF2 (human PPARα): did not provide significantly higher induction
induction of the basal level of PPARα on the PPRE (relative luciferase activity) (human PPARα): did not provide induction
activation of PPARα (receptor-mediated transcription) (human PPARα): did not activate PPAR receptor-mediated transcription; also recorded: does not activate PPARα
food intake / feeding behaviour [1]: clearly reduced food intake; also recorded: reduces feeding behaviour
melting point: 105 to 107 °C

SMILES: CCCCCCCC/C=C\CCCCCCCCNS(N)(=O)=O [Compound 1, N-(cis-9-octadecenyl)sulfamide]
melting point: 68 to 70 °C

Second part, led by results:

induction of the basal level of PPARα on the PPRE (relative luciferase activity) (human PPARα): ~6 times
activation of PPARα (receptor-mediated transcription) (human PPARα): potent activator of PPARα
melting point: 110 to 112 °C
SMILES: CCCCCCCCCCCCCCCCCCNS(=O)(=O)NCCC [Compound 7, N-octadecyl-N′-propylsulfamide]
food intake / feeding behaviour [1]: potent feeding suppressant
body weight [2, 5]: reduces body weight
plasma triglycerides [2, 5]: marked reduction in plasma triglycerides; also recorded: reduces
active dose ([2]; i.p.): 1 mg/kg
food intake [3]: reduced
body weight gain (cumulative relative weight gain) ([3]; 1 mg/kg): reduced body weight gain; also recorded: reduces cumulative relative weight gain

melting point: 105 to 107 °C
SMILES: CCCCCCCCCCCCCCNS(=O)(=O)NCCC [Compound 9, N-propyl-N′-tetradecylsulfamide]

induction of the basal level of PPARα on the PPRE (relative luciferase activity) (human PPARα): ~6 times
SMILES: CCCCCCCC/C=C\CCCCCCCC(=O)NCCO [OEA]
dose at which hypolipemiant effects are present ([4]; described in the literature): greater than 5 mg/kg
food intake (literature finding) ([4]; through activation of the nuclear receptor PPARα): decrease food intake

induction of the basal level of PPARα on the PPRE (relative luciferase activity) (human PPARα): did not provide induction
activation of PPARα (receptor-mediated transcription) (human PPARα): neither activates PPARα
SMILES: CCCNS(=O)(=O)NC12CC3CC(CC(C3)C1)C2 [Compound 12, N-propyl-N′-adamantylsulfamide]
induction of luciferase activity with overexpression of TIF2 (human PPARα): did not provide significantly higher induction
food intake / feeding behaviour [1]: nor suppress food intake

melting point: 108 to 110 °C
SMILES: CCCCCCCCCCCCCCCCNS(=O)(=O)NCCC [Compound 8, N-hexadecyl-N′-propylsulfamide]

melting point: 99 to 101 °C
SMILES: CCCCCCCCCCCCCCNS(N)(=O)=O [Compound 4, N-tetradecylsulfamide]

induction of the basal level of PPARα on the PPRE (relative luciferase activity) (human PPARα): ~6 times
SMILES: Cc1cccc(Nc2cc(Cl)nc(SCC(=O)O)n2)c1C [WY14643, reference compound]
